Like-named read-outs stand apart in the source and are kept apart here. Marks after values point to notes of the source that are not given here.
Key:
SW620 cells = experiment: LIVE/DEAD cytotoxicity assay, inhibition of cell proliferation, SW620; format: cell-based, human; settings: for GI50: Homo sapiens, read-out: log GI50 values (M), SW620 cells (converted)
Description: (§1) Compounds of the present invention were tested for a possible cytotoxic or proliferation-inhibiting activity on the human tumour cell lines HeLa, SW620 and A375 (all from ATCC, American Type Culture Collection). To this end, the cells were plated in microtitre plates from Greiner (manufacturer No. 781092) at a cell density of 1000 cells/microtitre plate well and cultivated in cell culture medium at 37° C. under a 5% carbon dioxide atmosphere. Cell culture media and additives were purchased from Invitrogen and the foetal calf serum from Biochrom. The cell culture media for HeLa and A375 cells were used as stated by ATCC (HeLa: MEM, order No. 10370-047, with 1% sodium bicarbonate, 1% non-essential amino acids, 1% sodium pyruvate, 10% foetal calf serum, 0.1% gentamycin; A375: DMEM, order No. 41965-039, 2% sodium bicarbonate, 1% L-Glutamax, 10% foetal calf serum, 0.1% gentamycin). The culture medium for the SW620 cells consisted of DMEM, order No. 41965-039, 1% non-essential amino acids, 10% foetal calf serum, 0.1% gentamycin.
(§2) 24 hours after the cells had been plated in the microtitre plates, various concentrations of at most 100 μM down to a minimum concentration of 5 nM of the test compounds were added to the cells. Stock solutions of the test compounds (10 mM) were prepared in DMSO and stored at −20° C. For the cytotoxicity tests, the test compounds were diluted in the appropriate cell culture medium.
(§3) After a further 48 hours of incubation, the cells were washed with medium and analysed with the aid of a two-colour fluorescence cytotoxicity/viability test (LIVE/DEAD Viability/Cytotoxicity ASSAY Kit from Molecular Probes, order No. L-3224), according to the instructions of the manufacturer. To this end, the medium was aspirated and in each case 30 μl of LIVE/DEAD reagent per microtitre plate well were added to the cells, which were then incubated for 30 minutes. The cells were then washed with PBS (phosphate-buffered saline). The number of live cells was analysed by measuring the green fluorescence of the live dye calcein-AM as a component of the LIVE/DEAD reagent using a fluorescence plate reader (Flexstation, from Molecular Devices) at an excitation wavelength of 485 nm and an emission wavelength of 525 nm (Oral et al. 1998). Cells only with cell culture medium, without added test compounds, were treated in parallel and analysed as growth controls. The reference compounds used for anti-tumour agents having a cytotoxic or proliferation-inhibiting action were colchicine (from Merck/Calbiochem, order No 234115) and Taxol (baccatin III N-benzyl-b-phenylisoserine ester, from Merck/Calbiochem, order No. 580555) (Schiff and Horwitz 1980; Holmes et al., 1991). The cytotoxic effects of the test compounds were expressed as logarithmic GI50 values ((growth)-inhibiting logarithmic concentration value at which a cell growth reduced by 50% compared to the control without test compounds was measured; Xia et al., 2001; Smith et al., 2005).

A375 cells = experiment: LIVE/DEAD cytotoxicity assay, inhibition of cell proliferation, A375; format: cell-based, human; settings: for GI50: Homo sapiens, read-out: log GI50 values (M), A375 cells (converted)
Description: as §1, §2, §3

log P determination = format: physicochemical; settings: values marked *, acetonitrile/0.1% aqueous phosphoric acid
HeLa cells = experiment: LIVE/DEAD cytotoxicity assay, inhibition of cell proliferation, HeLa; format: cell-based, human; settings: for GI50: Homo sapiens, read-out: log GI50 values (M), HeLa cells (converted)
Description: as §1, §2, §3

[1] = SW620 cells, 48 hours incubation, calcein-AM fluorescence
[2] = A375 cells, 48 hours incubation, calcein-AM fluorescence
[3] = no footnote carries the single asterisk, general footnote: HPLC gradient method
[4] = HeLa cells, 48 hours incubation, calcein-AM fluorescence

SMILES	log GI50 values (M), SW620 cells (SW620 cells; [1])	log GI50 values (M), A375 cells (A375 cells; [2])	log p (log P determination; [3])	log GI50 values (M), HeLa cells (HeLa cells; [4])	other results
C[C@H](Nc1c(-c2c(F)cc(F)cc2Cl)c(Cl)nc2c(C(=O)NS(C)(=O)=O)cnn12)C(F)(F)F [Example 117]	6.6 M	6.6 M	3.56*	6.8 M	–
CC(C)[C@@H](C)Nc1c(-c2c(F)cc(F)cc2F)c(Cl)nc2c(C(=O)NS(C)(=O)=O)cnn12 [Example 177]	6.7 M	8.1 M	3.85*	>8 M	–
CC(C)Nc1c(-c2c(F)cc(F)cc2F)c(Cl)nc2c(C(=O)NS(C)(=O)=O)cnn12 [Example 345]	6.4 M	6.3 M	–	6.6 M	log p (log P determination; HPLC, gradient method, EEC Directive 79/831 Annex V. A8): 3.24*
CC(=O)O[C@H]1C(=O)[C@@]2(C)[C@H]([C@H](OC(=O)c3ccccc3)[C@]3(O)C[C@H](OC(=O)[C@H](O)[C@@H](NC(=O)c4ccccc4)c4ccccc4)C(C)=C1C3(C)C)[C@]1(OC(C)=O)CO[C@@H]1C[C@@H]2O [Taxol, reference compound]	–	–	–	–	GI50 (SW620 cells; SW-620, SW620 cells, 48 hours incubation, calcein-AM fluorescence): 1.26e-07 M; GI50 (A375 cells; A-375, A375 cells, 48 hours incubation, calcein-AM fluorescence): 2e-07 M; GI50 (HeLa cells; [4]): 1.58e-08 M
COc1cc2c(c(OC)c1OC)-c1ccc(OC)c(=O)cc1[C@@H](NC(C)=O)CC2 [colchicine, reference compound]	–	–	–	–	GI50 (SW620 cells; SW-620, 48 h): 3.16e-08 M; GI50 (A375 cells; A-375, 48 h): 2e-08 M; GI50 (HeLa cells; HeLa, 48 h): 1.58e-08 M
